Several values for one entry are separate records, joined by “and”; a condition that tells them apart may be missing. Equal values may be shown once.
Key:
[1] = test system: micronucleated cells in blood; test: Flow cytometric micronucleus assay, list mode data, blood of MMS treated mice, per 10,000 PCEs; type: in vivo, mouse
From the text: The fixation procedure can affect the permeability of a cell, cell morphology and the amount of undesirable autofluorescence that is associated with a cell preparation. Fixing procedures can cause changes in cell structure (that are reflected in the light scatter patterns) as well as changes in the distribution of the dye molecules within the cells (resulting in altered fluorescence emission patterns). Practioners of the art are unaware that fixing the cells at ultralow temperatures circumvents these fixation problems and provides cells that are suitable for subsequent staining and FCM analysis. Initially, the cells are centrifuged in order to separate them from serum components which could aggregate when added to cold fixative. To fix cells, a fresh blood sample (25 μl) containing an anticogulant is suspended in a solution containing 1% BSA and 10% dimethylsulfoxide (DMSO) in PBS (2 ml). The cells are centrifuged at 500×g for five minutes at room temperature. The supernatant is discarded and the pellet is resuspended in the small amount of residual supernatant that remains. This cell suspension is cooled to 0° C., the cells are diluted further with cold (-70° C.) absolute methanol (2 ml) and it is incubated at -70° C. for five minutes. The cell suspension is then immediately diluted with 1% BSA in PBS (10 ml) and is centrifuged at 500×g for 5 minutes. The low temperature treatment yields fixed cells with good morphology as viewed with either inverted phase contrast microscopy or fluorescent microscopy. […] Cells fixed in this way can be stored at 0° C. for weeks with no significant deterioration and are ready for staining and MN analysis.
It is known to practioners in the art that a variety of fluorescent dyes can be used to stain the DNA and RNA of cells. […] By choosing proper concentrations of these two dyes in conjunction with 363 nm excitation wavelength, it is possible to obtain a blue fluorescence signal from the Hoechst 33258 labeled micronucleii. A red fluorescence signal can be obtained from propidium iodide labeled PCEs. […]

[2] = test system: micronucleated cells in blood; test: Flow cytometric micronucleus assay, dual parameter data, MMS, Hoechst 33258 & propidium iodide, per 500,000 cells; type: in vivo, mouse; settings: MMS 100 μg/g body weight IP at 0 and 48 hours
From the text: The fixation procedure can affect the permeability of a cell, cell morphology and the amount of undesirable autofluorescence that is associated with a cell preparation. Fixing procedures can cause changes in cell structure (that are reflected in the light scatter patterns) as well as changes in the distribution of the dye molecules within the cells (resulting in altered fluorescence emission patterns). Practioners of the art are unaware that fixing the cells at ultralow temperatures circumvents these fixation problems and provides cells that are suitable for subsequent staining and FCM analysis. […] Cells fixed in this way can be stored at 0° C. for weeks with no significant deterioration and are ready for staining and MN analysis.
When two dyes are used for simultaneous micronucleus and PCE discrimination, the cell suspension is prepared as follows: The Hoechst 33258 working solution described above is prepared and is filtered through an 0.2 micron Acro-disk (Gilman Sciences). […] When blood from a malaria (P. berghei) infected mouse was fixed and stained by this procedure, the bivariate pattern shown in FIG. 1B resulted, in which a stronger red fluorescence signal was obtained. […] The pH of the stained solution is important for good fluorescence emission profiles and resolution of the different cell populations. […]

[3] = test system: micronucleated cells in blood; test: Flow cytometric micronucleus assay, dual parameter data, cyclophosphamide, per 10^6 cells; type: in vivo, mouse; settings: for Mns (T = 96 hr): Hoechst 33258; for Δ (T96 - T0): per mouse difference and mean of differences
From the text: The fixation procedure can affect the permeability of a cell, cell morphology and the amount of undesirable autofluorescence that is associated with a cell preparation. Fixing procedures can cause changes in cell structure (that are reflected in the light scatter patterns) as well as changes in the distribution of the dye molecules within the cells (resulting in altered fluorescence emission patterns). Practioners of the art are unaware that fixing the cells at ultralow temperatures circumvents these fixation problems and provides cells that are suitable for subsequent staining and FCM analysis. Initially, the cells are centrifuged in order to separate them from serum components which could aggregate when added to cold fixative. To fix cells, a fresh blood sample (25 μl) containing an anticogulant is suspended in a solution containing 1% BSA and 10% dimethylsulfoxide (DMSO) in PBS (2 ml). The cells are centrifuged at 500×g for five minutes at room temperature. The supernatant is discarded and the pellet is resuspended in the small amount of residual supernatant that remains. This cell suspension is cooled to 0° C., the cells are diluted further with cold (-70° C.) absolute methanol (2 ml) and it is incubated at -70° C. for five minutes. The cell suspension is then immediately diluted with 1% BSA in PBS (10 ml) and is centrifuged at 500×g for 5 minutes. The low temperature treatment yields fixed cells with good morphology as viewed with either inverted phase contrast microscopy or fluorescent microscopy. Autofluorescence of these cells is very low, in contrast to glutaraldehyde or paraformaldehyde fixation procedures that are widely used in the art. Other volumes of blood and/or BSA in PBS are also compatible with this cell fixing process. The volume of methanol should be in the range of 0.5 to 20 ml. The temperature of the methanol should be in the range -30° C. to -90° C., and the fixation time in the range of 1 minute to 60 minutes for good results. When cells are fixed in alcohol at higher temperatures (e.g. in the range of +37° C. to - 20° C.), they tend to aggregate and quickly settle to the bottom of the centrifuge tube. […] Other ultra cold solvents can be used in place of methanol, such as acetone, methanol/acetone solutions, etc.. Two fixed cell samples can be prepared for each mouse, an initial (time=0) sample and a final time=96 hr sample. Cells fixed in this way can be stored at 0° C. for weeks with no significant deterioration and are ready for staining and MN analysis.
It is known to practioners in the art that a variety of fluorescent dyes can be used to stain the DNA and RNA of cells. Even so, the specific stain, combinations or staining conditions that are optimum for the FCM based micronucleus assay are unresolved. […] These dye can be used individually or together to stain different cell populations. By choosing proper concentrations of these two dyes in conjunction with 363 nm excitation wavelength, it is possible to obtain a blue fluorescence signal from the Hoechst 33258 labeled micronucleii. A red fluorescence signal can be obtained from propidium iodide labeled PCEs. Whereas neither the dye combination, the dye concentration, the dye excitation wavelengths nor the appropriate buffer systems are known to practitioners in the art for an FCM based micronucleus assay, the following staining protocal is submitted as an embodiment of the present invention. A 10× stock solution of the dye should be prepared by dissolving 14.3 mg Hoechst 33258 in methanol (100 ml). A working solution is then prepared by adding 0.25 ml of the 10× stock solution to 9.75 ml of complete Sorensen's buffer. This working solution is then passed through an 0.2 micron acro-filter disk (Gelman Sciences) to remove any debris. The filtered working solution is further diluted by adding 25 μl to 967.5 μl of saline buffer (9 g NaCl and 0.445 g sodium bicarbonate per liter). […]

[4] = test system: micronucleated cells in blood; settings: literature statement; cited from earlier work
[5] = CP 100 μg/g body wt IP at 0 and 48 hours
[6] = CP 100 μg/g body wt IP at 0 and 48 hours, listed as CP

SMILES | Experimental (A96) (MN96 hr) ([1]; MMS 100 μg/g body weight IP at 0 and 48 hours, 96 hr blood, list mode) | Δ (A96 - T96), change in number of MNs ([1]; MMS 100 μg/g body weight IP at 0 and 48 hours, normalized with K, list mode) | clastogenic activity ([1]; MMS 100 μg/g body weight IP at t=0 and t=48 hours) | Mns (96 hr) [2] | ΔMns (T96 - T0) [2] | Mns (T = 96 hr) [3, 5] [MNs per 10^6 cells] | Mns (T = 96 hr) [3, 6] | Δ (T96 - T0) [3, 5] [MNs per 10^6 cells] | Δ (T96 - T0) [3, 6] | Difference Mn96 - Mn0 (difference of the means) ([3]; CP 100 μg/g body wt IP at 0 and 48 hours, t=96 hr mean minus t=0 mean) [MNs per 10^6 cells] | MN formation ([3]; CP 100 μg/g body wt at 0 and 48 hours) | Increase in MNs (MeanCP - MeanSaline), from mean Δ (T96 - T0) ([3]; first method: difference of mean individual Δ values, CP minus saline) [MNs per 10^6 cells] | Increase in MNs (MeanCP - MeanSaline), from Mn96 - Mn0 of means ([3]; second method: difference of means, CP minus saline) [MNs per 10^6 cells] | Increase in MNs, means of the t=96 hr samples (dosed minus controls) ([3]; third method: t=0 values ignored, 1,000,000 cells) [MN-cells] | clastogenic activity (documented) [4]
COS(C)(=O)=O [MMS, methyl methanesulfonate] | 432 MNs/10,000 PCEs and 546 MNs/10,000 PCEs and 470 MNs/10,000 PCEs and 523 MNs/10,000 PCEs and 580 MNs/10,000 PCEs | 293 MNs/10,000 PCEs and 342 MNs/10,000 PCEs and 328 MNs/10,000 PCEs and 307 MNs/10,000 PCEs and 374 MNs/10,000 PCEs and 329 ± 32 MNs/10,000 PCEs and 329±28 MNs/10,000 PCEs | MMS exhibited clastogenic activity | 1416 MNs per 500,000 cells and 1394 MNs per 500,000 cells and 1282 MNs per 500,000 cells and 1535 MNs per 500,000 cells | 535 MNs per 500,000 cells and 563 MNs per 500,000 cells and 657 MNs per 500,000 cells and 399 MNs per 500,000 cells and 520 MNs per 500,000 cells and 535 ± 107 MNs per 500,000 cells |  |  |  |  |  |  |  |  |  | 
O=P1(N(CCCl)CCCl)NCCCO1 (stereo not drawn) [cyclophosphamide] |  |  |  |  |  | 2954 | 2591 MNs per 10^6 cells and 2453 MNs per 10^6 cells and 2626 MNs per 10^6 cells and 2708 MNs per 10^6 cells and 2594 ± 106 MNs per 10^6 cells | 1124 | 1099 MNs per 10^6 cells and 1039 MNs per 10^6 cells and 1074 MNs per 10^6 cells and 1282 MNs per 10^6 cells and 1124 ± 108 MNs per 10^6 cells | 1123 | large increase in MN formation | 1047 | 1047 | 992 | clastogenic activity of cyclophosphamide has been documented
